pIC50: −log10 of the molar value. Like-named read-outs stand apart in the source and are kept apart here.
Columns and labels:
KRAS (G12V)::SOS1 = KRAS (G12V)::SOS1 (Homo sapiens (Human), UniProt P01116, C118S/G12V); assay: KRAS::SOS1 AlphaScreen binding assay, KRAS G12V
Outline: (§1)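 Compounds (up to 100 μM, eleven fivefold dilutions in duplicate) were incubated 30 min with KRAS 1-169 (10 nM, or 7.5 nM for G12C), GST-SOS1 564-1049 (5 nM for G12D/G12C, 10 nM for others) and 10 μM GDP in PBS buffer with BSA and Tween. Donor/acceptor beads were then added for 60 min at room temperature, and IC50 came from a 4-parameter fit of the AlphaScreen signal.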

KRAS (G13D)::SOS1 = KRAS (G13D)::SOS1 (Homo sapiens (Human), UniProt P01116, C118S/G13D); assay: KRAS::SOS1 AlphaScreen binding assay, KRAS G13D
Sequence of KRAS (G13D)::SOS1 (P01116 other isoform, or with tags, fused parts or gaps G13D/C118S): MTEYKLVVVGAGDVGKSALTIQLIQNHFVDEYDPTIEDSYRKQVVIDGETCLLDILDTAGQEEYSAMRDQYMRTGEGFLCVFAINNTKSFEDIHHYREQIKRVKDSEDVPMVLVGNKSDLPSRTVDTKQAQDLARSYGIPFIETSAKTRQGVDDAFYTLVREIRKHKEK
Excerpt: This assay can be used to examine the potency with which compounds according to the invention binding to (mutated) KRAS inhibit the protein-protein interaction between SOS1 and (mutated) KRAS e.g., KRAS WT, KRAS G12C, KRAS G12D, KRAS G12V, KRAS G13D. […] Low IC50 values in this assay setting are indicative of strong inhibition of protein-protein interaction between SOS1 and KRAS:
These assays measure the inhibitory effect of compounds on KRAS mutant protein-protein interactions using the Alpha Screen technology by Perkin Elmer.
The following (mutant) enzyme forms of KRAS and interacting proteins are used in these assays at the given concentrations: • KRAS (G12D) 1-169, N-terminal 6His-tag, C-terminal avi-tag (Xtal BioStructures, Inc.); final assay concentration 10 nM and SOS1 564-1049, N-terminal 229 GST-tag, TEV cleavage site (Viva Biotech Ltd); final assay concentration 5 nM; • KRAS (G12C) 1-169, N-terminal 6His-tag for purification, cleaved off, C-terminal avi-tag, biotinylated, mutations: C51S, C80L, C118S (in house); final assay concentration 7.5 nM and SOS1 564-1049, N-terminal 229 GST-tag, TEV cleavage site (Viva Biotech Ltd); final assay concentration 5 nM; • KRAS (G12V) 1-169, N-terminal 6His-tag for purification, cleaved off, C-terminal avi-tag, biotinylated, TEV cleavage site, mutation: C118S, GDP loaded (in house); final assay concentration 10 nM and SOS1 564-1049, N-terminal 229 GST-tag, TEV cleavage site (Viva Biotech Ltd); final assay concentration 10 nM; • KRAS (G13D) 1-169, N-terminal 6His-tag for purification, cleaved off, C-terminal avi-tag, biotinylated, TEV cleavage site, mutation: C118S, GDP loaded (in house); final assay concentration 10 nM and SOS1 564-1049, N-terminal 229 GST-tag, TEV cleavage site (Viva Biotech Ltd); final assay concentration 10 nM; • KRAS (WT) 1-169, N-terminal 6His-tag for purification, cleaved off, C-terminal avi-tag, biotinylated, TEV cleavage site, mutation: C118S, GDP loaded (in house); final assay concentration 10 nM and SOS1 564-1049, N-terminal 229 GST-tag, TEV cleavage site (Viva Biotech Ltd); final assay concentration 10 nM.
Test compounds dissolved in DMSO are dispensed onto assay plates (Proxiplate 384 PLUS, white, PerkinElmer; 6008289) using an Access Labcyte Workstation with the Labcyte Echo 55×. For the chosen highest assay concentration of 100 μM, 150 nL of compound solution are transferred from a 10 mM DMSO compound stock solution. A series of eleven fivefold dilutions per compound are transferred to the assay plate, compound dilutions are tested in duplicates. DMSO are added as backfill to a total volume of 150 nL.
The assays run on a fully automated robotic system in a darkened room below 100 Lux. To 150 nl of compound dilution 10 μl of a mix including KRAS mutant protein, SOS1 (final assay concentrations see above) and GDP nucleotide (Sigma G7127; final assay concentration 10 μM) in assay buffer (1×PBS, 0.1% BSA, 0.05% Tween 20) are added into columns 1-24.
After 30 minutes incubation time 5 μl of Alpha Screen bead mix in assay buffer are added into columns 1-23. Bead mix consists of AlphaLISA Glutathione Acceptor Beads (PerkinElmer, Cat No AL109) and AlphaScreen Streptavidin Donor Beads (PerkinElmer Cat No 6760002) in assay buffer at a final assay concentration of 10 μg/ml each.
Plates are kept at room temperature in a darkened incubator. After an additional 60 minutes incubation time the signal is measured in a PerkinElmer Envision HTS Multilabel Reader using the AlphaScreen specs from PerkinElmer.
Each plate contains up to 16 wells of a negative control depending on the dilution procedure (platewise or serial) (DMSO instead of test compound; with KRAS mutant::SOS1 GDP mix and bead mix; column 23) and 16 wells of a positive control (DMSO instead of test compound; with KRAS mutant::SOS1 GDP mix w/o bead mix; column 24).
As internal control known inhibitors of KRAS mutant::SOS1 interaction can be measured on each compound plate. […]

KRAS (WT)::SOS1 = KRAS (WT)::SOS1 (Homo sapiens (Human), UniProt P01116, C118S); assay: KRAS::SOS1 AlphaScreen binding assay, KRAS WT
Sequence of KRAS (WT)::SOS1 (P01116 other isoform, or with tags, fused parts or gaps C118S): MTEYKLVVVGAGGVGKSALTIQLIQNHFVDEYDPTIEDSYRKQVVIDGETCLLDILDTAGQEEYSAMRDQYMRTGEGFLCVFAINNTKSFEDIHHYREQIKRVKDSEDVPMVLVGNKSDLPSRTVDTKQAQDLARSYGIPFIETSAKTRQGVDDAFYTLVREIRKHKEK
Outline: as §1

MKN1 cells = assay: MKN1 CTG proliferation assay (120 h) (gastric cancer, wt amplified); format: cell-based; conditions: Homo sapiens
Outline: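 MKN1 gastric cancer cells (200–500 per well, RPMI + 10% FCS) given a logarithmic compound dose series and incubated 120 h. Viability by CellTiter-Glo luminescence as percent of DMSO controls. IC50 by four-parameter non-linear regression.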

[1] = MKN-1, assay 3, CTG 120 h, read-out: MKN1 (assay 3) IC50
[2] = MKN-1, assay 2, CTG 120 h, read-out: MKN1 (assay 2) IC50

Sequence of KRAS (G12V)::SOS1 (P01116 other isoform, or with tags, fused parts or gaps G12V/C118S): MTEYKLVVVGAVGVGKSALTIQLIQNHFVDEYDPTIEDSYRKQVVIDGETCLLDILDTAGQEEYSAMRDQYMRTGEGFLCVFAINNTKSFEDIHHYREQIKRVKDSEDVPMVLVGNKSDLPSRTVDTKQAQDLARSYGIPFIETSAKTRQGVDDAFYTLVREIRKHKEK

C[C@H](Oc1cc(N2CCNC3(COC3)C2)nc(-c2onc3c2CCC[C@@]32CCCc3sc(N)c(C#N)c32)n1)[C@@H]1CCCN1C [I-4]
pIC50 (KRAS (G12V)::SOS1): 8.10 | pIC50 (KRAS (G13D)::SOS1): 7.70 | pIC50 (KRAS (WT)::SOS1): 8.52 | pIC50 (MKN1 cells; [1]): 7.12

C[C@H](Oc1cc([C@@H]2CCOC2)nc(-c2onc3c2CCC[C@@]32CCCc3sc(N)c(C#N)c32)n1)[C@@H]1CCCN1C [I-22]
pIC50 (KRAS (WT)::SOS1): 8.52 | pIC50 (MKN1 cells; [1]): 7.17

Cc1ccc(-c2cc(O[C@@H](C)[C@@H]3CCCN3C)nc(-c3onc4c3CCC[C@@]43CCCc4sc(N)c(C#N)c43)n2)cn1 [I-28]
pIC50 (KRAS (G12V)::SOS1): 8.52 | pIC50 (KRAS (WT)::SOS1): 7.74 | pIC50 (MKN1 cells; [1]): 5.89

C[C@H](Oc1cc(-c2ccn(C3COC3)n2)nc(-c2onc3c2CCC[C@@]32CCCc3sc(N)c(C#N)c32)n1)[C@@H]1CCCN1C [I-34]
pIC50 (KRAS (WT)::SOS1): 8.40 | pIC50 (MKN1 cells; [1]): 6.16

C[C@H](Oc1cc(N2CCN(C)C3(CC3)C2)nc(-c2onc3c2CCC[C@@]32CCCc3sc(N)c(C#N)c32)n1)[C@@H]1C[C@@H](F)CN1C [I-39]
pIC50 (KRAS (G13D)::SOS1): 6.84 | pIC50 (KRAS (WT)::SOS1): 7.96 | pIC50 (MKN1 cells; [2]): 6.21

C[C@H](Oc1cc(N2CCN(C)C3(CC3)C2)nc(-c2onc3c2CCC[C@@]32CCCc3sc(N)c(C#N)c32)n1)[C@@H]1CCCN1C [I-41]
pIC50 (KRAS (WT)::SOS1): 8.30

C[C@H](Oc1cc(N2C[C@H](C)N(C)[C@@H](C)C2)nc(-c2onc3c2CCC[C@@]32CCCc3sc(N)c(C#N)c32)n1)[C@@H]1CCCN1C [I-43]
pIC50 (KRAS (G12V)::SOS1): 8.10

C[C@H](Oc1cc(N2CCNC3(CC3)C2)nc(-c2onc3c2CCC[C@@]32CCCc3sc(N)c(C#N)c32)n1)[C@@H]1C[C@@H](F)CN1C [I-45]
pIC50 (KRAS (G12V)::SOS1): 8.10 | pIC50 (KRAS (WT)::SOS1): 8.22 | pIC50 (MKN1 cells; [2]): 6.29

C[C@H](Oc1cc(N2C[C@@H](N(C)C)[C@@H](F)C2)nc(-c2noc3c2CCC[C@@]32CCCc3sc(N)c(C#N)c32)n1)[C@@H]1CCCN1C [II-11]
pIC50 (KRAS (WT)::SOS1): 8.40

C[C@H](Oc1cc(N2CC[C@H](N3CCCCC3)C2)nc(-c2noc3c2CCC[C@@]32CCCc3sc(N)c(C#N)c32)n1)[C@@H]1CCCN1C [II-12]
pIC50 (KRAS (WT)::SOS1): 7.82 | pIC50 (MKN1 cells; [1]): 6.34

C[C@H](Oc1cc(N2CCN(C)C3(COC3)C2)nc(-c2noc3c2CCC[C@@]32CCCc3sc(N)c(C#N)c32)n1)[C@@H]1CCCN1C [II-13]
pIC50 (KRAS (G12V)::SOS1): 8.52 | pIC50 (KRAS (G13D)::SOS1): 8.10 | pIC50 (KRAS (WT)::SOS1): 8.52

C[C@H](Oc1cc(N2CC[C@H](N3CCCC3)C2)nc(-c2noc3c2CCC[C@@]32CCCc3sc(N)c(C#N)c32)n1)[C@@H]1CCCN1C [II-14]
pIC50 (KRAS (WT)::SOS1): 7.82

C[C@H](Oc1cc(N2CC[C@H](N(C)C)C2)nc(-c2noc3c2CCC[C@@]32CCCc3sc(N)c(C#N)c32)n1)[C@@H]1C[C@@H](F)CN1C [II-15]
pIC50 (KRAS (G12V)::SOS1): 7.41 | pIC50 (KRAS (G13D)::SOS1): 7.15 | pIC50 (KRAS (WT)::SOS1): 7.96

C[C@@H]1CN(c2cc(O[C@@H](C)[C@@H]3C[C@@H](F)CN3C)nc(-c3noc4c3CCC[C@@]43CCCc4sc(N)c(C#N)c43)n2)CC2(CC2)N1 [II-17]
pIC50 (KRAS (WT)::SOS1): 8.30

From patent US20240174690A1, “ANNULATED 2-AMINO-3-CYANO THIOPHENES AND DERIVATIVES FOR THE TREATMENT OF CANCER” (BOEHRINGER INGELHEIM INTERNATIONAL GMBH, priority 2021, published 2024)
